Test results: patent publication US20160202234A1, “METHOD FOR EVALUATING, VIA BIODOSIMETRY, THE I[…] RECEIVED BY A PERSON SUBJECTED TO IONIZING RADIATION” (ACUBENS, priority 2013, published 2016)

Test system: two different cell lines, respectively sensitive S and resistant R
Test: ratio of apoptotic cells as a function of NCS concentration, compared with irradiation dose
Assay type: cell-based
Settings: concentration of 1 nM of neocarzinostatin
Method: FIG. 27 is a graph showing the change in the amount of apoptotic cells in a mixture as a function of the quantity of NCS in this mixture,
FIG. 28 is a graph showing the change in the number of apoptotic cells as a function of the irradiation dose received by an individual,
The substance used is for example neocarzinostatin (NCS). […] These graphs made it possible to determine in particular that a concentration of 1 nM of neocarzinostatin is equivalent to, that is to say produces the same effect as, an irradiation dose of 1.2 Gy. Several hair samplings are carried out on the same region of an individual, along with a plurality of blood samplings. Two of the samples are subjected to the action of NCS at a known dose, for example equivalent to 1 Gy, in reaction wells in a plate. Each sample can be treated and analysed, as described previously. One of the two samples is analysed immediately at the same time as a sample that has not received treatment, and the second is analysed after a given period Δt, for example 1 hour.

Substance: neocarzinostatin
- irradiation dose equivalent to (produces the same effect as) the neocarzinostatin concentration: 1.2 Gy
